System: HSP70
Assay: HSP70 protein expression inducing activity in HeLa cells (ELISA)
Assay type: cell-based, human
Details: final concentration 1 mg/mL, 24 hours
Method: The HSP70 inducing activity of the samples 1, 3, and 4 which were the same ones as used in Example 4 was evaluated by measuring an HSP70 protein expression level. In the same manner as described in Example 4, HeLa cells that had been suspended in DMEM (added with 10% FBS) were seeded in a 12-well plate (100,000 cells/mL/well). […] A part of the cells were then scraped off with a cell scraper, collected into a 1.5 mL sample tube, and subjected to HSP70 protein quantification and total protein quantification. The quantification of HSP70 protein was carried out using HSP70 ELISA kit (product name) (manufactured by Enzo); and the quantification of total protein was carried out using Micro BCA Protein Assay Reagent kit (product name) (manufactured by PIERCE Biotechnology). With regard to the remaining cells, an effect on cell proliferation was evaluated by 3-(4,5-dimethyl […])-2,5-diphenyltetrazalium bromide (MTT) method. […]

Structure (SMILES): O=Cc1ccc(CO)o1 [sample 1, 5-Hydroxymethyl-2-furaldehyde]
- increased HSP70 protein expression as compared with the control: about 1.3 fold
